# Like-named read-outs stand apart in the source and are kept apart here.
# Assays:
# LdCA = LdCA (Leishmania donovani, UniProt A0A3S5H5R2); experiment: biochemical
# Description: (§1) An Applied Photophysics stopped-flow instrument was used to assay the CA catalysed CO2 hydration activity. […] The uncatalyzed rates were determined in the same manner and subtracted from the total observed rates. Stock solutions of the inhibitor (0.1 mM) were prepared in distilled–deionized water and dilutions up to 0.01 nM were done thereafter with the assay buffer. Inhibitor and enzyme solutions were preincubated together for 15 min at room temperature prior to the assay, to allow for the formation of the E–I complex. The inhibition constants were obtained by non-linear least-squares methods using PRISM 3 and the Cheng-Prusoff equation as reported earlier and represent the mean from at least three different determinations. All CA isoforms were recombinant proteins obtained in house, as reported earlier[14]^,[26–29].
# SmCA = SmCA (Schistosoma mansoni, UniProt A0A3Q0KSG2); experiment: biochemical
# Description: as §1
# TcCA = TcCA (Trypanosoma cruzi, UniProt Q4DKE0); format: biochemical; settings: stopped flow CO2 hydrase assay; mean from three different assays
# Description: as §1
# hCA IV = target: T1, hCA IV (Homo sapiens, UniProt P22748); experiment: stopped flow CO2 hydrase assay, hCA IV; format: biochemical; settings: mean from three different assays
# T1 construct: made in house
# Description: (§2) An Applied Photophysics stopped-flow instrument was used to assay the CA catalysed CO2 hydration activity. […] The CO2 concentrations ranged from 1.7 to 17 mM for the determination of the kinetic parameters and inhibition constants. […] For each inhibitor, at least six traces of the initial 5–10% of the reaction were used to determine the initial velocity. The uncatalyzed rates were determined in the same manner and subtracted from the total observed rates. Stock solutions of the inhibitor (0.1 mM) were prepared in distilled–deionized water and dilutions up to 0.01 nM were done thereafter with the assay buffer. Inhibitor and enzyme solutions were preincubated together for 15 min at room temperature prior to the assay, to allow for the formation of the E–I complex. The inhibition constants were obtained by non-linear least-squares methods using PRISM 3 and the Cheng-Prusoff equation as reported earlier and represent the mean from at least three different determinations. All CA isoforms were recombinant proteins obtained in house, as reported earlier[14]^,[26–29].
# hCA IX = target: T2, hCA IX (Homo sapiens, UniProt Q16790); experiment: stopped flow CO2 hydrase assay, hCA IX; format: biochemical; settings: mean from three different assays
# T2 construct: made in house
# Description: as §2
# hCA I = target: T3, hCA I (Homo sapiens, UniProt P00915); experiment: stopped flow CO2 hydrase assay, hCA I; format: biochemical; settings: mean from three different assays
# T3 construct: made in house
# Description: as §2
# hCA II = target: T4, hCA II (Homo sapiens, UniProt P00918); experiment: stopped flow CO2 hydrase assay, hCA II; format: biochemical; settings: mean from three different assays, read-out: Ki hCAII
# T4 construct: made in house
# Description: as §2
# [1] = test system: newly transformed schistosomula (NTS); experiment: In vitro antischistosomal activity against newly transformed schistosomula (NTS); format: cell-based, Schistosoma mansoni; settings: 10 μM, after 72 h of exposure, viability via microscopy
# Description: In vitro studies were carried out in accordance with Swiss national and cantonal regulations on animal welfare under the permission number 2070. The drug sensitivity assays with S. mansoni (adult and newly transformed schistosomules (NTS)) were carried out as described recently. Briefly, to obtain NTS, cercariae were collected from infected Biomphalaria glabrata snails and were mechanically transformed. Adult S. mansoni worms were collected by dissecting the mesenteric veins of infected mice at day 49 postinfection. Approximately 30–40 NTS were incubated with the respective test drug in 250 µL of M199 medium (Gibco, Waltham, MA) supplemented with 5% (v/v) foetal calf serum (FCS) (Bioconcept AG, Switzerland), 1% (v/v) penicillin/streptomycin solution (Sigma–Aldrich, Switzerland) and 1% (v/v) antibacterial/antifungal solution for up to 72 h at 37 °C and 5% CO2. The drug was tested at 10 µM in triplicate and repeated once. Three adult S. mansoni were incubated in a final volume of 2 mL rpmI 1640 supplemented with 5% (v/v) FCS and 1% (v/v) penicillin/streptomycin at 37 °C and 5% CO2 for 72 h at 10 µM. The experiment was conducted in duplicate. Worms were judged via microscopic readout 72 h after incubation; they were scored according to phenotypic reference points such as motility, morphology and granularity (scores from 0 to 3).
# [2] = stopped flow CO2 hydrase assay, mean from three different assays, read-out: Ki LdCA
# [3] = stopped flow CO2 hydrase assay, mean from three different assays, read-out: Ki SmCA
# T1 sequence (P22748 19-312): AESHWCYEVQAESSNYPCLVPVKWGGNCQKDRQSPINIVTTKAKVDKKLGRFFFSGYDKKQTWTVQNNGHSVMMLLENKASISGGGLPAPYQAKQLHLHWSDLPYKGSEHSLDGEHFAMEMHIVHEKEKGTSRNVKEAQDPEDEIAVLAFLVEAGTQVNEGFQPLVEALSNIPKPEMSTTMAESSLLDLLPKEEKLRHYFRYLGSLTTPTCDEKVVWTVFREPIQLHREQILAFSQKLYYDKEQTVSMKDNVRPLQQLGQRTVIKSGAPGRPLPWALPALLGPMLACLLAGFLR
# Sequence of SmCA (A0A3Q0KSG2 entry or part of it): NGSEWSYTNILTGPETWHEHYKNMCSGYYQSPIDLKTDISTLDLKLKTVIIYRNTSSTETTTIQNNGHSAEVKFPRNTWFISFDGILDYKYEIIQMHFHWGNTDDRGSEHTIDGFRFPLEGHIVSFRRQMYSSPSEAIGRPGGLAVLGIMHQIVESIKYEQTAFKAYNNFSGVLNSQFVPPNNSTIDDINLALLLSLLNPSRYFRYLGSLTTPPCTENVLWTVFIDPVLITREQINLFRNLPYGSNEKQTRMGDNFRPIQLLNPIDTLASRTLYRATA
# T3 sequence (P00915 whole entry): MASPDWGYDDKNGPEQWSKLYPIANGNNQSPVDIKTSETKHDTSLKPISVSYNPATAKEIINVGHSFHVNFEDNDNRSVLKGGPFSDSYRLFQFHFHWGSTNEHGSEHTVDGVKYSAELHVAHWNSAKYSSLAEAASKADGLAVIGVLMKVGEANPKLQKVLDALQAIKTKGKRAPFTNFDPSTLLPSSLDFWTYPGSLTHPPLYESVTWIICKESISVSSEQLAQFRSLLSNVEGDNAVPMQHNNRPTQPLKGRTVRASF
# Sequence of TcCA (Q4DKE0 entry or part of it): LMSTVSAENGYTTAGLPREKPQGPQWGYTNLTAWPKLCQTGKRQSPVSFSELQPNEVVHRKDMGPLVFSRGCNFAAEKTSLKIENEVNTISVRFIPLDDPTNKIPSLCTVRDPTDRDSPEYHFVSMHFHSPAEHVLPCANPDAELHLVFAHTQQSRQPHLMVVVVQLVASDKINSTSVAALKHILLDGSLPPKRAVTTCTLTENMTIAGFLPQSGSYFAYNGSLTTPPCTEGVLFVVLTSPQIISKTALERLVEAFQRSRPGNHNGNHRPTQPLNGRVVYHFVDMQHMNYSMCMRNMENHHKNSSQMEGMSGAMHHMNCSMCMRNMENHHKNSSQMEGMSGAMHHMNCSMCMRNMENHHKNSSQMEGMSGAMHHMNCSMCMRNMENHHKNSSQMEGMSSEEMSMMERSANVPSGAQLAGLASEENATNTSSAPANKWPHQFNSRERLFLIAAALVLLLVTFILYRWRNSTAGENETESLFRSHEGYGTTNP
# Sequence of LdCA (A0A3S5H5R2 entry or part of it): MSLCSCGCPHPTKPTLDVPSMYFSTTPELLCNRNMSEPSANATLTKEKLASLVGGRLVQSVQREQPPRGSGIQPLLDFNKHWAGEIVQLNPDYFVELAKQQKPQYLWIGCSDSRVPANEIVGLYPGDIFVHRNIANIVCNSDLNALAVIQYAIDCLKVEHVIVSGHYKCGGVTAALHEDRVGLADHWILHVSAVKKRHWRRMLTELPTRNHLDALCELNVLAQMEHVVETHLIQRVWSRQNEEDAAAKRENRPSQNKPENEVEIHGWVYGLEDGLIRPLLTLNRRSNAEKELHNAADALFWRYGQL
Compound,Ki (LdCA; [2]) [nM],Ki (SmCA; [3]) [nM],Ki (TcCA) [nM],Ki (hCA IV) [nM],Ki (hCA IX) [nM],Ki (hCA I) [nM],Ki (hCA II) [nM],Ki (LdCA) [nM],Ki (SmCA) [nM],activity against NTS [1]
"3–(3-(3–(4-Oxo-1,3,4,6,7,11b-hexahydro-2H-pyrazino[2,1-a]isoquinoline-2-carbonyl) phenyl)ureido)benzenesulfonamide [Compound 31b]",323 ± 16.7,2490 ± 144,309 ± 33.4,451 ± 24.3,31.2 ± 1.6,,,,,
"3–(3-(4–(4-Oxo-1,3,4,6,7,11b-hexahydro-2H-pyrazino[2,1-a]isoquinoline-2-carbonyl) phenyl)ureido)benzenesulfonamide [Compound 31d]",82.8 ± 5.5,764 ± 68.3,393 ± 24.7,320 ± 32.7,138 ± 7.8,,,,,
"4–(3-(3–(4-Oxo-1,3,4,6,7,11b-hexahydro-2H-pyrazino[2,1-a]isoquinoline-2-carbonyl) phenyl)ureido)benzenesulfonamide [Compound 31a]",248 ± 15.9,8.8 ± 0.8,1650 ± 129,180 ± 19.5,280 ± 15.4,,,,,
"4–(3-(4–(4-Oxo-1,3,4,6,7,11b-hexahydro-2H-pyrazino[2,1-a]isoquinoline-2-carbonyl) phenyl)ureido)benzenesulfonamide [Compound 31c]",401 ± 20.7,62.8 ± 4,589 ± 37,8700 ± 559,31.1 ± 2.9,,,,,
"NS(=O)(=O)c1ccc(C(=O)N2CC(=O)N3CCc4ccccc4C3C2)cc1 (stereo not drawn) [Compound 4a, 4–(4-Oxo-1,3,4,6,7,11b-hexahydro-2H-pyrazino[2,1-a]isoquinoline-2-carbonyl) benzenesulfonamide]",371 ± 26.9,1890 ± 195,,8860 ± 617,30.3 ± 3,93.8 ± 8.8,44.6 ± 3.4,,,
"NS(=O)(=O)c1ccc(NC(=S)Nc2ccc([Se]Cc3ccc(C(=O)N4CC(=O)N5CCc6ccccc6C5C4)cc3)cc2)cc1 (stereo not drawn) [Compound 9, 4–(3-(4-((4–(4-oxo-1,3,4,6,7,11b-hexahydro-2H-pyrazino[2,1-a]isoquinoline-2-carbonyl)benzyl)selanyl)phenyl)thioureido)benzenesulfonamide]",,,,966 ± 82.8,174 ± 17.2,486 ± 24.9,131 ± 14,276 ± 22.4,771 ± 40.1,
"NS(=O)(=O)c1ccc(NC(=O)NCc2ccc(C(=O)N3CC(=O)N4CCc5ccccc5C4C3)cc2)cc1 (stereo not drawn) [Compound 28a, 4–(3-(4–(4-Oxo-1,3,4,6,7,11b-hexahydro-2H-pyrazino[2,1-a]isoquinoline-2-carbonyl)benzyl)ureido)benzenesulfonamide]",340 ± 33.9,614 ± 50.6,,548 ± 29.6,31.8 ± 1.8,74.4 ± 3.9,8.2 ± 0.7,,,over 30%
"NS(=O)(=O)c1cccc(NC(=O)NCc2ccc(C(=O)N3CC(=O)N4CCc5ccccc5C4C3)cc2)c1 (stereo not drawn) [Compound 28b, 3–(3-(4–(4-Oxo-1,3,4,6,7,11b-hexahydro-2H-pyrazino[2,1-a]isoquinoline-2-carbonyl)benzyl)ureido)benzenesulfonamide]",300 ± 30.5,824 ± 66.8,,851 ± 56.2,29.9 ± 1.6,96.5 ± 6.5,14.9 ± 1.5,,,
"NS(=O)(=O)c1ccc(NC(=O)NCc2ccc(C(=O)Nc3nc(CC(=O)N4CC(=O)N5CCc6ccccc6C5C4)cs3)cc2)cc1 (stereo not drawn) [Compound 29a, N-(4–(2-oxo-2–(4-oxo-1,3,4,6,7,11b-hexahydro-2H-pyrazino[2,1-a]isoquinolin-2-yl)ethyl)thiazol-2-yl)-4-((3–(4-sulfamoylphenyl)ureido)methyl)benzamide]",85.5 ± 6.77,1640 ± 97,,541 ± 30.3,31.9 ± 1.9,314 ± 30.5,49.6 ± 3.2,,,
"NS(=O)(=O)c1cccc(NC(=O)NCc2ccc(C(=O)Nc3nc(CC(=O)N4CC(=O)N5CCc6ccccc6C5C4)cs3)cc2)c1 (stereo not drawn) [Compound 29b, N-(4–(2-oxo-2–(4-oxo-1,3,4,6,7,11b-hexahydro-2H-pyrazino[2,1-a]isoquinolin-2-yl)ethyl)thiazol-2-yl)-4-((3–(3-sulfamoylphenyl)ureido)methyl)benzamide]",218 ± 17.9,901 ± 77.6,,789 ± 66.2,199 ± 17.6,506 ± 27.9,7.1 ± 0.6,,,
"NS(=O)(=O)c1ccc(C(=O)Nc2nc(CC(=O)N3CC(=O)N4CCc5ccccc5C4C3)cs2)cc1 (stereo not drawn) [Compound 30, N-(4–(2-oxo-2–(4-oxo-1,3,4,6,7,11b-hexahydro-2H-pyrazino[2,1-a]isoquinolin-2-yl)ethyl)thiazol-2-yl)-4-sulfamoylbenzamide]",81.3 ± 6.4,7.8 ± 0.6,,422 ± 26.6,119 ± 12.4,58.6 ± 6.2,8.5 ± 0.5,,,
"NS(=O)(=O)c1ccc(CNC(=O)Nc2ccc(C(=O)N3CC(=O)N4CCc5ccccc5C4C3)cc2)cc1 (stereo not drawn) [Compound 32, 4-((3–(4-(4-Oxo-1,3,4,6,7,11b-hexahydro-2H-pyrazino[2,1-a]isoquinoline-2-carbonyl)phenyl)ureido)methyl)benzenesulfonamide]",401 ± 34.8,6350 ± 472,,665 ± 47.3,112 ± 11.3,80.7 ± 4.8,26.5 ± 2.4,,,
"NS(=O)(=O)c1ccc(CCNC(=O)Nc2ccc(C(=O)N3CC(=O)N4CCc5ccccc5C4C3)cn2)cc1 (stereo not drawn) [Compound 33, 4–(2-(3–(5-(4-Oxo-1,3,4,6,7,11b-hexahydro-2H-pyrazino[2,1-a]isoquinoline-2-carbonyl)pyridin-2-yl)ureido)ethyl)benzenesulfonamide]",87.5 ± 4.9,581 ± 32.5,,6810 ± 379,90.9 ± 9.6,128 ± 11.9,49.2 ± 3.5,,,
"NS(=O)(=O)c1cccc(NC(=O)N2CC(=O)N3CCc4ccccc4C3C2)c1 (stereo not drawn) [Compound 34b, 4-Oxo-N-(3-sulfamoylphenyl)-1,3,4,6,7,11b-hexahydro-2H-pyrazino[2,1-a]isoquinoline-2-carboxamide]",347 ± 34.3,7200 ± 661,,517 ± 52.4,91.9 ± 8.8,409 ± 23.3,45.6 ± 3,,,
"NS(=O)(=O)c1ccc(NC(=S)N2CC(=O)N3CCc4ccccc4C3C2)cc1 (stereo not drawn) [Compound 35a, 4-Oxo-N-(4-sulfamoylphenyl)-1,3,4,6,7,11b-hexahydro-2H-pyrazino[2,1-a]isoquinoline-2-carbothioamide]",323 ± 22.2,79.4 ± 4.2,,7110 ± 404,82.2 ± 8.6,303 ± 24.1,53.9 ± 4.4,,,
"NS(=O)(=O)c1cccc(NC(=S)N2CC(=O)N3CCc4ccccc4C3C2)c1 (stereo not drawn) [Compound 35b, 4-Oxo-N-(3-sulfamoylphenyl)-1,3,4,6,7,11b-hexahydro-2H-pyrazino[2,1-a]isoquinoline-2-carbothioamide]",237 ± 12.5,6150 ± 612,,47.9 ± 4.1,83.3 ± 7.3,86.5 ± 9,8 ± 0.8,,,
"NS(=O)(=O)c1ccc(CCNC(=S)N2CC(=O)N3CCc4ccccc4C3C2)cc1 (stereo not drawn) [Compound 35c, 4-Oxo-N-(4-sulfamoylphenethyl)-1,3,4,6,7,11b-hexahydro-2H-pyrazino[2,1-a]isoquinoline-2-carbothioamide]",485 ± 46,5 ± 0.5,,8270 ± 719,97.1 ± 7.9,64 ± 5.4,7.6 ± 0.4,,,
"O=C(C1CCCCC1)N1CC(=O)N2CCc3ccccc3C2C1 (stereo not drawn) [PZQ, Praziquantel]",> 10000,> 10000,,> 10000,> 10000,> 10000,> 10000,,,
